# In patent publication US20170349540A1, “HISTONE DEACETYLASE INHIBITORS” (The General Hospital Corporation, priority 2014, published 2017):
# Assays:
# [1] = Intravenous pharmacokinetics and brain distribution assay; type: in vivo, male Sprague Dawley rats; details: single i.v. dose 1 mg/kg
# Protocol: Healthy male Sprague Dawley rats (8-12 weeks old) weighing between 200 to 250 g were procured from In vivo Bioscience, Bengluru, India. Three rats were housed in each cage. Temperature and humidity were maintained at 22±3° C. and 40-70%, respectively and illumination was controlled to give a sequence of 12 h light and 12 h dark cycle. Temperature and humidity were recorded by auto-controlled data logger system. All the animals were provided laboratory rodent diet (Vetcare India Pvt. Ltd, Bengaluru) ad libitum. Reverse osmosis water treated with ultraviolet light was provided ad libitum.
# Sprague Dawley rats were intravenously administered a solution formulation of the compound of Example 2 prepared in 10% DMSO, 10% Tween 80, 80% normal saline. The blood samples were collected from a set of three rats at each time point in labeled micro centrifuge tube containing K2EDTA solution as anticoagulant. Plasma samples were separated by centrifugation of whole blood and stored at below −70° C. until bioanalysis. After collection of blood samples at each time point animals were humanely euthanized by CO2 and the brain was collected. Brain samples were homogenized using ice-cold phosphate buffer saline (pH=7.4) and homogenates were stored at below −70° C. until analysis. Total homogenate volume was three times the brain weight. All samples were processed for analysis by protein precipitation using acetonitrile and analyzed with fit-for-purpose LC-MS/MS method (LLOQ=1.01 ng/mL in plasma and brain). Pharmacokinetic parameters were calculated using the non-compartmental analysis tool of Phoenix WinNonlin® (Version 6.3).
# The compound of Example 2 (5.89 mg) was added in a labeled bottle, followed by DMSO (2.945 mL), Tween 80 (2.945 mL), and normal saline (23.50 mL), and the resulting mixture was mixed by vortexing after each addition. The solution formulation was sonicated for 2 minutes to obtain a clear solution. After preparation of formulation, 200 μL samples were aliquoted for analysis. […] All formulations were freshly prepared prior to dosing. […]
# Concentrations of the compound of Example 2 in rat plasma and brain samples were analyzed with fit-for-purpose by LC-MS/MS method. […] Following centrifugation, 100 µL of clear supernatant was transferred to a 96-well plate and analyzed using LC-MS/MS.
# Non-Compartmental-Analysis module in Phoenix WinNonlin® (Version 6.3) was used to assess the pharmacokinetic parameters. […] The areas under the concentration time curve (AUClast and AUCinf) were calculated by linear trapezoidal rule. The terminal elimination rate constant, ke, was determined by regression analysis of the linear terminal portion of the log plasma concentration-time curve. […]
# rats = assay: Open field activity test; type: in vivo, rat; details: 20-fold higher doses relative to the FST tests (0.5 and 2.0 mg/kg i.p.), relative to vehicle-treated controls
# Protocol: Behavioral testing was applied to a cohort of 12 rats. Following 7 days of daily i.p. treatment with i) vehicle (10% DMSO, 10% Tween 80, 80% saline; 2 mL/kg); or solubilized ii) the compound of Example 2 (0.025 mg/kg) or iii) the compound of Example 2 (0.1 mg/kg), rats were exposed to the modified forced swim test (FST). Briefly, FST exposure (15 min exposure, 25° C. tap water, 30 cm water depth) was performed 18-24 h after the previous i.p. treatment, after which rats were returned to their home cages to dry for approximately 2-3 h, then given daily i.p. treatment as before. FST testing was performed one day later (5 min test, 25° C. tap water, 30 cm water depth) with behaviors digitally recorded for subsequent analysis of immobility by a trained reviewer, blinded to treatment groups. Rats were returned to home cages and monitored without treatment for 72 h. Rats were then treated for 7 additional days with i) vehicle, ii) the compound of Example 2 (0.5 mg/kg) or iii) the compound of Example 2 (2.0 mg/kg) via daily i.p. injection; treatment assignments for each rat remained the same with a 20× increase in dose of the compound of Example 2. Animals were then evaluated for locomotor activity in an open field (60 cm square) using automated tracking software (MedAssociates). […]
# [2] = Weight gain of rats during treatment; type: in vivo, rat; details: daily i.p. treatment
# Protocol: Behavioral testing was applied to a cohort of 12 rats. Following 7 days of daily i.p. treatment with i) vehicle (10% DMSO, 10% Tween 80, 80% saline; 2 mL/kg); or solubilized ii) the compound of Example 2 (0.025 mg/kg) or iii) the compound of Example 2 (0.1 mg/kg), rats were exposed to the modified forced swim test (FST). Briefly, FST exposure (15 min exposure, 25° C. tap water, 30 cm water depth) was performed 18-24 h after the previous i.p. treatment, after which rats were returned to their home cages to dry for approximately 2-3 h, then given daily i.p. treatment as before. FST testing was performed one day later (5 min test, 25° C. tap water, 30 cm water depth) with behaviors digitally recorded for subsequent analysis of immobility by a trained reviewer, blinded to treatment groups. Rats were returned to home cages and monitored without treatment for 72 h. […] Animals were then evaluated for locomotor activity in an open field (60 cm square) using automated tracking software (MedAssociates).
# Rats were exposed to a 15 min session of forced swimming in 25° C. water (20 cm diameter cylinder, 30 cm water depth). […] After 1 day, rats were tested for immobility time during 5-min FST sessions which were videotaped and scored by a trained observer blinded to treatment groups.
smiles,measurement,setting,value
"CN(Cc1ccc(/C=C/C(=O)Nc2ccccc2N)cc1)CC12CC3CC(CC(C3)C1)C2 [Example 2, (E)-3-(4-((((3r,5r,7r)-adamantan-1-ylmethyl)(methyl)amino)methyl)phenyl)-N-(2-aminophenyl)acrylamide]",Kp,"[1]; male, Sprague Dawley, rat, brain/plasma, iv, read-out: brain-to-plasma exposure ratio",8.35
same,clearance,"[1]; male, Sprague Dawley, rat, plasma, iv",79 mL/min/kg
same,half-life,"[1]; male, Sprague Dawley, rat, plasma, iv, read-out: elimination half-life (converted)",54.6 min
same,Vss relative to the normal volume of total body water (0.7 L/kg),[1],6 fold
same,effect in locomotor activity (open field),rats,no confounding effect in locomotor activity
same,average weight gain of tested rats,[2],not impacted
